What all share (assay type): in vivo
Assay [1] deals with mustard beetle larvae (Phaedon cochleariae). Nature of the assay: Phaedon cochleariae spray test. Conditions: mortality, Chinese cabbage leaf-disks sprayed. The procedure:
(§1) For all examples efficiencies of the compositions comprising at least one BCA and at least one specific insecticide has been determined by the “Colby-formula”: The expected efficacy of a given combination of two compounds is calculated as follows (see Colby, S. R., “Calculating Synergistic and antagonistic Responses of Herbicide Combinations”, Weeds 15, pp. 20-22, 1967):
(§2) • X is the efficacy expressed in % mortality of the untreated control for test compound A at a concentration of m ppm respectively m g/ha, • Y is the efficacy expressed in % mortality of the untreated control for test compound B at a concentration of n ppm respectively n g/ha, • E is the efficacy expressed in % mortality of the untreated control using the mixture of A and B at m and n ppm respectively m and n g/ha, then
(§3) If the observed insecticidal efficacy of the combination is higher than the one calculated as “E”, then the combination of the two compounds is more than additive, i.e., there is a synergistic effect.
(§4) To produce a suitable preparation of active compound, 1 part by weight of active compound is mixed with the stated amount of solvent and emulsifier, and the concentrate is diluted with emulsifier-containing water to the desired concentration. To produce a suitable preparation of a spore suspension the spores are diluted with emulsifier-containing water to the desired concentration.
Chinese cabbage (Brassica pekinensis) leaf-disks are sprayed with a preparation of the active ingredient of the desired concentration. Once dry, the leaf disks are infested with mustard beetle larvae (Phaedon cochleariae).
After the specified period of time, mortality in % is determined. 100% means all beetle larvae have been killed and 0% means none of the beetle larvae have been killed. The mortality values determined thus are recalculated using the Colby-formula (see above).

In assay [2] the test system is larvae of the diamondback moth (Plutella xylostella). As to the kind of experiment: Plutella xylostella spray test. The following applies: mortality, cabbage leaves sprayed, 0.05 ppm. The protocol:
as §1, §2, §3
(§5) To produce a suitable preparation of active compound, 1 part by weight of active compound is mixed with the stated amount of solvent and emulsifier, and the concentrate is diluted with emulsifier-containing water to the desired concentration. […]
After the specified period of time, the mortality in % is determined. […] The mortality values determined thus are recalculated using the Colby-formula (see above).

The subject of assay [3] is green peach aphid (Myzus persicae). Nature of the assay: Myzus persicae spray test (MYZUPE). Conditions: mortality, Chinese cabbage leaf-disks sprayed. The procedure:
as §1, §2, §3, §4
Chinese cabbage (Brassica pekinensis) leaf-disks infected with all instars of the green peach aphid (Myzus persicae), are sprayed with a preparation of the active ingredient of the desired concentration.
After the specified period of time, mortality in % is determined. 100% means all aphids have been killed; 0% means none of the aphids have been killed. The mortality values determined thus are recalculated using the Colby-formula (see above).

The subject of assay [4] is two spotted spidermite (Tetranychus urticae). As to the kind of experiment: Tetranychus urticae spray test, OP-resistant. Conditions: mortality, French beans sprayed, 20 g ai/ha. The protocol:
as §1, §2, §3, §5
(§6) After the specified period of time, mortality in % is determined. […] The mortality values determined thus are recalculated using the Colby-formula (see above).

For assay [5], the system named is fall armyworm larvae (Spodoptera frugiperda). Nature of the assay: Spodoptera frugiperda spray test. The following applies: mortality, maize leaf sections sprayed, 0.8 g ai/ha. The protocol: as §1, §2, §3
To produce a suitable preparation of the active compound, 1 part by weight of active compound is mixed with the stated amount of solvent and emulsifier, and the concentrate is diluted with emulsifier-containing water to the desired concentration. […]
as §6

The test system of assay [6] is caterpillars of the beet army worm (Spodoptera exigua). As to the kind of experiment: Spodoptera exigua spray test. The following applies: mortality, cotton leaves sprayed, 0.1 ppm. The protocol: as §1, §2, §3, §5, §6

Results on three compounds are retold here after patent US10542757B2, “Compositions comprising a biological control agent and an insecticide” (priority 2012, dated 2020).

Molecules are shown by their SMILES.

Take `CNC(=O)c1cc(Cl)cc(C)c1NC(=O)c1cc(Br)nn1-c1ncccc1Cl` [Chlorantraniliprole (I231), Chlorantraniliprole]: the “Efficacy in % after 6d” value in assay [1] (0.16 g ai/ha), in assay [1] (0.8 g ai/ha) and in assay [3] (4 g/ha) was 0% throughout. Moreover, in assay [2], the “Efficacy in % after 3d” value worked out at 30%.

Regarding `CNC(=O)c1cc(C#N)cc(C)c1NC(=O)c1cc(Br)nn1-c1ncccc1Cl` [Cyantraniliprole (I232), Cyantraniliprole], the “Efficacy in % after 6d” value in assay [1] (0.8 g ai/ha) stood at 33%; in assay [4], 0%; in assay [3] (0.16 g/ha), 0%.

Turning to `Cc1cc(C(F)(C(F)(F)F)C(F)(F)F)ccc1NC(=O)c1cccc(I)c1C(=O)NC(C)(C)CS(C)(=O)=O` [Flubendiamide (I233), Flubendiamide], the “Efficacy in % after 2d” value in assay [1] (100 g ai/ha, 2 d) was found to be 0%; in assay [5] (2 d), 0%. For the same compound, the “Efficacy in % after 6d” value in assay [5] (6 d) and in assay [3] (100 g/ha) was 0% in each case. The “Efficacy in % after 3d” value in assay [6] is given as 30%.
